From ChEMBL document CHEMBL1201862, “PubChem BioAssay data set” (2004)
Several values for one entry are separate records, joined by “and”; a condition that tells them apart may be missing. Identical values can stand only once.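 Test compounds were applied to cells in 96-well plates for 48 hours at 5 doses. GI50: concentration for 50% inhibition of growth.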 Activity calls are given as the source filed them. Rule as the data show it: active = GI50 up to about 1.1 µM and inactive = higher.

What was measured:
Experiment in all cases: growth of human tumour cells (NCI), 48 h
SF-268 = tested on: SF-268
K562 = tested on: K562
UACC-257 = tested on: UACC-257
CCRF-CEM = tested on: CCRF-CEM
SR = tested on: SR
IGROV-1 = tested on: IGROV-1
OVCAR-5 = tested on: OVCAR-5
NCI-H460 = tested on: NCI-H460
SK-MEL-2 = tested on: SK-MEL-2
HCT-116 = tested on: HCT-116
HT-29 = tested on: HT-29
OVCAR-3 = tested on: OVCAR-3
HCT-15 = tested on: HCT-15
OVCAR-4 = tested on: OVCAR-4
DU-145 = tested on: DU-145
EKVX = tested on: EKVX
Hs-578T = tested on: Hs-578T
SN12C = tested on: SN12C
NCI/ADR-RES = tested on: NCI/ADR-RES

SMILES | GI50 (SF-268) | GI50 (K562) | GI50 (UACC-257) | GI50 (CCRF-CEM) | GI50 (SR) | GI50 (IGROV-1) | GI50 (OVCAR-5) | GI50 (NCI-H460) | GI50 (SK-MEL-2) | GI50 (HCT-116) | GI50 (HT-29) | GI50 (OVCAR-3) | GI50 (HCT-15) | GI50 (OVCAR-4) | GI50 (DU-145) | GI50 (EKVX) | GI50 (Hs-578T) | GI50 (SN12C) | GI50 (NCI/ADR-RES)
COC(=O)C1=C(C)NC(C)=C(C(=O)OC)C1c1cccc(NO)c1 | 16.6 µM (inactive) | 4.76 µM (inactive) | 14.4 µM (inactive) | 3.79 µM (inactive) | > 100 µM (inactive) | 16.7 µM (inactive) | 16.4 µM (inactive) | 15.1 µM (inactive) | 15.2 µM (inactive) | 13 µM (inactive) | 16 µM (inactive) | 16 µM (inactive) | 19.3 µM | 13.9 µM (inactive) | 22 µM (inactive) | 22.2 µM (inactive) | 18.4 µM (inactive) | 18.5 µM (inactive) | 20 µM (inactive)
Cc1ccc(-c2cc(-c3ccc(Cl)cc3)nc(/N=C3\C(=O)N(CN4CCOCC4)c4ccc(Cl)cc43)n2)cc1 | 22.6 µM (inactive) | 10.5 µM (inactive) | 33.3 µM (inactive) | 20.4 µM (inactive) | 9.38 µM (inactive) | 13 µM (inactive) | 26.4 µM (inactive) | 20.9 µM (inactive) | 20.1 µM (inactive) | 17.4 µM (inactive) | 16.3 µM (inactive) | 33.3 µM (inactive) | 23.2 µM | 29.3 µM (inactive) | 20.5 µM (inactive) | 15.2 µM (inactive) | 24.3 µM (inactive) | 24.7 µM (inactive) | 22.6 µM (inactive)
Oc1cc2c3c(c1)CCCN3CCC2 | > 10 µM (inactive) | > 10 µM (inactive) | > 10 µM (inactive) | > 10 µM (inactive) | > 10 µM (inactive) | > 10 µM (inactive) | > 10 µM (inactive) | > 10 µM (inactive) | > 10 µM (inactive) | > 10 µM (inactive) | > 10 µM (inactive) | > 10 µM (inactive) | > 10 µM | > 10 µM (inactive) | > 10 µM (inactive) | > 10 µM (inactive) | > 10 µM (inactive) | > 10 µM (inactive) | > 10 µM (inactive)
CN(C)CCO/N=C1/C=C2CC[C@H]3[C@@H]4CC[C@H](O)[C@@]4(C)CC[C@@H]3[C@@]2(C)CC1 | 7.48 µM (inactive) | 6.22 µM (inactive) | 12.9 µM (inactive) | 6.89 µM (inactive) | 5.55 µM (inactive) | 6.95 µM (inactive) | 12.5 µM (inactive) | 7.11 µM (inactive) | 13.9 µM (inactive) | 10.5 µM (inactive) | 1.05 µM (active) | 16.6 µM (inactive) | 13.9 µM | 2.49 µM (inactive) | 16.7 µM (inactive) | 15.6 µM (inactive) | 4.91 µM (inactive) | 11.7 µM (inactive) | 3.18 µM (inactive)
CN(C)Cc1cc(Cl)c(O)c(CN(C)C)c1 | > 100 µM (inactive) | > 100 µM (inactive) | > 100 µM (inactive) | > 100 µM (inactive) | > 100 µM (inactive) | > 100 µM (inactive) | > 100 µM (inactive) | > 100 µM (inactive) | > 100 µM (inactive) | > 100 µM (inactive) | > 100 µM (inactive) | > 100 µM (inactive) | > 100 µM | > 100 µM (inactive) | > 100 µM (inactive) | > 100 µM (inactive) | > 100 µM (inactive) | > 100 µM (inactive) | > 100 µM (inactive)
O=c1ccn(CC2(CO)CCC2)c(=O)[nH]1 | > 100 µM (inactive) | > 100 µM (inactive) | > 100 µM (inactive) | > 100 µM (inactive) | > 100 µM (inactive) | > 100 µM (inactive) | > 100 µM (inactive) | > 100 µM (inactive) | > 100 µM (inactive) | > 100 µM (inactive) | > 100 µM (inactive) | > 100 µM (inactive) | > 100 µM | > 100 µM (inactive) | > 100 µM (inactive) | > 100 µM (inactive) | > 100 µM (inactive) | > 100 µM (inactive) | > 100 µM (inactive)
CC(C)=CCC[C@@H](C)C1=C(Nc2ccccc2F)C(=O)C(C)=C(O)C1=O | 5.47 µM (inactive) | 4.45 µM (inactive) | 10.1 µM (inactive) | 0.869 µM (active) | 11 µM (inactive) | 4.54 µM (inactive) | 36.8 µM (inactive) | 3.92 µM (inactive) | 8.75 µM (inactive) | 4.58 µM (inactive) | 4.74 µM (inactive) | 4.51 µM (inactive) | 3.77 µM | 9.98 µM (inactive) | 9.35 µM (inactive) | 5.12 µM (inactive) | 5.31 µM (inactive) | 6.97 µM (inactive) | 2.55 µM (inactive)
CCN(CC)CCCNc1c2c(Cl)cc(Cl)cc2nc2nc(O)nc(C)c12 | 23 µM (inactive) | 44.1 µM (inactive) | 43 µM (inactive) | 34.5 µM (inactive) | > 10 µM (inactive) | 35.6 µM (inactive) | 19.9 µM (inactive) | 20.2 µM (inactive) | 27.5 µM (inactive) | 17.1 µM (inactive) | 18 µM (inactive) | 77.6 µM (inactive) | > 100 µM | 33.9 µM (inactive) | > 100 µM (inactive) | > 100 µM (inactive) | 47.5 µM (inactive) | 25.3 µM (inactive) | > 100 µM (inactive)
CC(C)(O)C1CC[C@]2(C)CC[C@]3(C)[C@H](CC[C@@H]4[C@@]5(C)CC[C@H](O)C(C)(C)[C@@H]5CC[C@]43C)[C@@H]12 (stereo not given in full) | 31 µM (inactive) | 82.6 µM (inactive) | 15.4 µM (inactive) | 74.1 µM (inactive) | 30.5 µM (inactive) | 33.3 µM (inactive) | 32.5 µM (inactive) | 34.8 µM (inactive) | 20.5 µM (inactive) | 21 µM (inactive) | 35.8 µM (inactive) | 24.1 µM (inactive) | 35 µM | 27.2 µM (inactive) | 23.2 µM (inactive) | 23.2 µM (inactive) | 22.7 µM (inactive) | 81.3 µM (inactive) | 29.4 µM (inactive)
COc1cc2ccc1OCc1cccc(n1)COc1ccc(cc1OC)/C=N\c1ccc(cc1)/N=C\2 | > 100 µM (inactive) | > 100 µM (inactive) | > 100 µM (inactive) | > 100 µM (inactive) | > 100 µM (inactive) | > 100 µM (inactive) | > 100 µM (inactive) | > 100 µM (inactive) | > 100 µM (inactive) | > 100 µM (inactive) | > 100 µM (inactive) | > 100 µM (inactive) | > 100 µM | > 100 µM (inactive) | > 100 µM (inactive) | > 100 µM (inactive) | 54.2 µM (inactive) | > 100 µM (inactive) | > 100 µM (inactive)
Fc1ccc(NC(=S)SCc2ccc3c(c2)OCO3)cc1F | 21.2 µM (inactive) | 19.1 µM (inactive) | 21.1 µM (inactive) | 23.4 µM (inactive) | 17.4 µM (inactive) | 18.6 µM (inactive) | 11.1 µM (inactive) | 28 µM (inactive) | 18.3 µM (inactive) | 49.3 µM (inactive) | 20.2 µM (inactive) | 29.2 µM (inactive) | 17.2 µM | 22.4 µM (inactive) | 31.6 µM (inactive) | 11.7 µM (inactive) | 26.9 µM (inactive) | 16.3 µM (inactive) | 25.2 µM (inactive)
CN(C)C(c1ccccc1)C1COC2Cc3ccccc3C1O2 (stereo not given) | > 100 µM (inactive) | 66.2 µM (inactive) and 38.7 µM (inactive) | > 100 µM (inactive) | 79.3 µM (inactive) | > 100 µM (inactive) | > 100 µM (inactive) | > 100 µM (inactive) | > 100 µM (inactive) | > 100 µM (inactive) | 98.2 µM (inactive) and 86.9 µM (inactive) | 47.5 µM (inactive) and 46.6 µM (inactive) | 47.1 µM (inactive) and 64 µM (inactive) | > 100 µM | > 100 µM (inactive) | > 100 µM (inactive) | > 100 µM (inactive) | 92.3 µM (inactive) | > 100 µM (inactive) | > 100 µM (inactive)
C[C@H]1CCC/C=C/[C@@H]2C[C@H](OC3OC(CO)C(O)C(O)C3O)C[C@H]2[C@H](O)/C=C/C(=O)O1 (stereo not given in full) | 72.8 µM (inactive) | > 100 µM (inactive) | 26.5 µM (inactive) | > 100 µM (inactive) | > 100 µM (inactive) | > 100 µM (inactive) | 37.3 µM (inactive) | 78.9 µM (inactive) | 49.5 µM (inactive) | 77.8 µM (inactive) | 33.2 µM (inactive) | 55.6 µM (inactive) | 72.3 µM | 78.5 µM (inactive) | > 100 µM (inactive) | > 100 µM (inactive) | 30.1 µM (inactive) | > 100 µM (inactive) | 33.3 µM (inactive)
C/C(=N\O)c1ccc2cc(Br)c3ccccc3c2c1 | 26.2 µM (inactive) | 46.8 µM (inactive) | 16.9 µM (inactive) | 17.5 µM (inactive) | 24.6 µM (inactive) | 28 µM (inactive) | 11.5 µM (inactive) | 16.2 µM (inactive) | 15.8 µM (inactive) | 11.9 µM (inactive) | 2.89 µM (inactive) | 16.9 µM (inactive) | 16 µM | 61.5 µM (inactive) | 39.4 µM (inactive) | 19.1 µM (inactive) | 23.9 µM (inactive) | 14.8 µM (inactive) | 19.9 µM (inactive)
COC(=O)c1ccccc1/C=C1\Cc2ccc3c(c2C1=O)CCCC3 | > 100 µM (inactive) | > 100 µM (inactive) | > 100 µM (inactive) | > 100 µM (inactive) | > 100 µM (inactive) | > 100 µM (inactive) | > 100 µM (inactive) | > 100 µM (inactive) | > 100 µM (inactive) | > 100 µM (inactive) | > 100 µM (inactive) | > 100 µM (inactive) | > 100 µM | > 100 µM (inactive) | > 100 µM (inactive) | > 100 µM (inactive) | > 100 µM (inactive) | > 100 µM (inactive) | > 100 µM (inactive)
